Experimental data: the SangsterLogP compilation

test: method code SF-AS, from DOI: 10.1021/je900189v

SMILES	logP
Nc1ccc(S(=O)(=O)Nc2cc(Cl)ccc2Cl)cc1	2.45
O=[N+]([O-])c1ccccc1NS(=O)(=O)c1ccccc1	2.08
CC(=O)Nc1ccncc1NS(=O)(=O)c1ccc([N+](=O)[O-])cc1	0.71
Nc1ccc(S(=O)(=O)Nc2cc(Cl)c(Cl)cc2Cl)cc1	3.17
Nc1ccc(S(=O)(=O)Nc2ccccc2Cl)c(Cl)c1	2.98
Cc1ccc(Cl)cc1NS(=O)(=O)c1ccc(N)cc1	2.73
Cc1ccc(NS(=O)(=O)c2ccc(N)cc2)c(Cl)c1	2.37
Nc1ccc(S(=O)(=O)Nc2ccc(I)cc2)cc1	2.82
Cc1cc(N)ccc1S(=O)(=O)Nc1ccc(Cl)cc1	2.73
Nc1ccc(S(=O)(=O)Nc2ccc(Cl)cc2)c(Cl)c1	2.48
COc1c(Cl)cccc1NS(=O)(=O)c1ccc(N)cc1	2.43
CCOc1ccc(NS(=O)(=O)c2ccc([N+](=O)[O-])cc2)cc1	2.23
Cc1cc(Cl)ccc1NS(=O)(=O)c1ccc(N)cc1	2.65
Nc1ccc(S(=O)(=O)Nc2ccc(Cl)c(Cl)c2)cc1	2.64
Nc1ccc(S(=O)(=O)Nc2ccc([N+](=O)[O-])cc2Br)cc1	1.87
Cc1cc(N)ccc1S(=O)(=O)Nc1ccccc1[N+](=O)[O-]	2.19
Cc1ccc(NS(=O)(=O)c2ccc([N+](=O)[O-])cc2)nc1	1.01

The next lines start with the values.

logP	SMILES
1.54	O=S(=O)(Nc1ncccc1Cl)c1ccccc1
0.07	CNS(=O)(=O)c1ccc(N)cc1
1.19	O=[N+]([O-])c1ccc(S(=O)(=O)Nc2nccs2)cc1
2.92	Cc1ccc(NS(=O)(=O)c2ccc(N)cc2)cc1Cl
2.09	O=[N+]([O-])c1ccc(NS(=O)(=O)c2ccccc2)cc1
3.44	O=S(=O)(Nc1ccc(Cl)cc1)c1ccccc1
2.47	Nc1ccc(S(=O)(=O)Nc2ccc(Cl)cc2)cc1
2.62	CCc1ccc(NS(=O)(=O)c2ccc(N)cc2)cc1
3.45	O=S(=O)(Nc1cccc(Cl)c1Cl)c1ccccc1
1.88	Nc1ccc(S(=O)(=O)Nc2ccc([N+](=O)[O-])cc2)cc1
1.89	O=S(=O)(Nc1cccnc1Cl)c1ccccc1
2.66	Cc1cc(N)ccc1S(=O)(=O)Nc1ccccc1Cl
1.52	CCN(CC)S(=O)(=O)c1ccc(N)cc1
1.58	COc1ccc(NS(=O)(=O)c2ccc(N)cc2)cc1
2.72	O=S(=O)(Nc1ccccc1Cl)c1ccccc1
